Assay results published in patent US10130616B2, “Securinine and norsecurinine analogue compounds for the treatment of myeloid disorders” (Case Western Reserve University, priority 2013, dated 2018).
Where two headings read alike, the source gives them in different places.

Columns and labels:
CD14 and CD11b = conditions: flow cytometry; cited from earlier work
HL-60 leukemic cells [1] = conditions: HL-60 cells; from U.S. patent application Ser. No. 14/029,066; cited from earlier work
MOLT3 = assay: Growth inhibition of MOLT3 cells; assay type: cell-based
Protocol: (§1) In certain embodiments, securinine and norsecurinine analogues were administered to cancerous cells, such as acute myeloblastic leukemia cells (e.g., MOLT3 and OCI-AML3) and growth inhibition was analyzed. The analogues were effective in inhibiting myeloid growth in addition to promoting differentiation, and provide for reduced proliferation of acute myeloblastic leukemia cells (Table 2).

HL-60 cells [2] = assay: Growth of HL-60 cells (IC50); assay type: cell-based, human; conditions: value bracketed between tested concentrations, read-out: HL-60, IC50
OCI-AML3 = assay: Growth inhibition of OCI-AML3 cells; assay type: cell-based
Protocol: as §1

HL-60 leukemic cells [3] = assay: Nitroblue Tetrazolium (NBT) reduction assay, differentiation of HL-60 leukemic cells; assay type: cell-based, human
Description: In an aspect of the present disclosure, the compounds of the disclosure can be identified using a novel high-throughput screen that is biased to identify agents that have both a high potency and low toxicity in a myeloid disorder disease model, such as an animal or cell model. In some embodiments, the high-throughput screen measures the differentiation of HL-60 leukemic cells using a quantitative nitroblue tetrazolium (NBT) reduction assay. Screening HL-60 cells, human promyelocytic cells, is advantageous as they have been used extensively as a cell line to study myeloid differentiation. Though promyelocytic cells, HL-60 cells were derived from a patient with acute myeloblastic leukemia with maturation, FAB-M2.
This technique has also been widely exploited in HL-60 cells to analyze myelomonocytic differentiation.
The NBT screen works due to changes in the oxidoreductases during differentiation that lead to increases in rates of NBT reduction. NBT is reduced due to the production of superoxide that is catalyzed by an NADPH oxidase. […] NBT is reduced by superoxide from a soluble yellow compound to insoluble blue formazan granules whose formation can be monitored spectrophotometrically at 560 nm as the unreduced dye has minimal absorbance at this wavelength. A quantitative NBT reduction assay is ideal for this type of screen as it is simple, sensitive, quantitative, requires minimal cells, has been proven to have low well to well variability, and the amount of reduced NBT is proportional to the number of cells reducing the dye as well as the amount reduced by each cell.
To discover novel AML differentiation-inducing compounds a rapid high-throughput screen (HTS) was developed and optimized. The screen was designed to be biased to identify compounds that, unlike the majority of known differentiation-inducing agents, have both high potency and low toxicity. The screen measured the differentiation of HL-60 leukemic cells using a quantitative Nitroblue Tetrazolium (NBT) reduction assay, a test that is used extensively as a measure of functional myelomonocytic differentiation. The basis for the screen is unreduced NBT exists as a yellow soluble dye. Differentiated leukemic cells are capable of producing a respiratory burst that can reduce NBT into a blue insoluble compound that can be measured spectrophotometrically. This forward chemical genetics approach allowed the discovery of novel compounds that can act on targets not previously known to be “drugable.” As only live cells can reduce NBT, the screen is biased in identifying relatively nontoxic compounds.
To perform the screen, duplicate plates of HL-60 cells were cultured at a density of 5×10^4 cells/mL with 10 μM of each compound in 96 well plates for 5 days. To determine the relative capability for a compound to induce differentiation compared to known potent inducers, each plate destined for the NBT reduction assay included wells with 0.1% DMSO (vehicle control) and 1 μM ATRA. This approach eliminates any slight day to day variation in NBT reduction values and allows the discovery of compounds with similar or greater efficacy to ATRA. Differentiation was determined in the 96 well plates by incubating the cells with 1 mg/mL of NBT and 200 ng/mL of PMA as the stimulant for the respiratory burst for 35 minutes at 37° C. The reaction was then stopped with HCl and the formazan solubilized with DMSO. Finally, the reaction mixture was read spectrophotometrically at 560 nm in a plate reader.
The securinine and norsecurinine analogues were tested and evaluated on their abilities to affect differentiation and growth of HL-60 cells (Table 1).

CEBPβ = conditions: cited from earlier work
[4] = system: 60 cancer cell lines, normal human lymphocytes, normal human bone marrow, mouse embryonic fibroblasts, and human umbilical vein endothelial cells; conditions: 60 cancer cell lines and normal cells; cited from earlier work
c-myc = conditions: cited from earlier work
leukemic cells = conditions: cited from earlier work
HL-60 cells [5] = conditions: cited from earlier work
[6] = system: a variety of leukemic cell lines; conditions: cited from earlier work
p44/p42 and p38 = conditions: cited from earlier work
cell cycle (G0/G1) = conditions: cited from earlier work
p21 = conditions: cited from earlier work
[7] = Homo sapiens, MOLT-3, MOLT3 cells, read-out: MOLT3 IC50
[8] = Homo sapiens, HL-60, HL-60 cells
[9] = Homo sapiens, OCI-AML-3, OCI-AML3 cells, read-out: OCI-AML3 IC50
[10] = Homo sapiens, HL-60 cells, value bracketed between tested concentrations, read-out: HL-60, Dif50
[11] = HL-60 cells, value bracketed between tested concentrations, read-out: HL-60, Dif50

SMILES | IC50 (MOLT3; [7]) | IC50 (HL-60 cells [2]; [8]) | IC50 (OCI-AML3; [9]) | also measured
CC1=C(/C=C/C(C)=C/C=C/C(C)=C/C(=O)O)C(C)(C)CCC1 [ATRA, all-trans-retinoic acid] | – | – | – | induction of cell surface markers CD14 and CD11b (CD14 and CD11b): primarily induces CD11b; cells differentiated, NBT reduction assay (HL-60 leukemic cells [1]): ~95%
O=C1C=C2C(C#Cc3ccccc3)=C[C@@H]3C[C@@]2(O1)[C@H]1CCCCN31 [Compound 17] | 70 nM | 70 to 156 nM | 80 nM | –
CN(C)CC#CC1=C[C@@H]2C[C@@]3(OC(=O)C=C13)[C@H]1CCCCN21 [Compound 18] | 70 nM | 70 to 156 nM | 90 nM | –
CCOC#CC1=C[C@@H]2C[C@@]3(OC(=O)C=C13)[C@H]1CCCCN21 [Compound 22] | 196 nM | 310 to 625 nM | 220 nM | –
N#CCCCC#CC1=C[C@@H]2C[C@@]3(OC(=O)C=C13)[C@H]1CCCCN21 [Compound 26] | 160 nM | – | 195 nM | –
C=C(C)CC#CC1=C[C@@H]2C[C@@]3(OC(=O)C=C13)[C@H]1CCCCN21 [Compound 28] | 165 nM | 156 to 310 nM | 200 nM | –
COc1ccc(C#CC2=C[C@@H]3C[C@@]4(OC(=O)C=C24)[C@H]2CCCCN32)cc1 [Compound 29] | 60 nM | 39 to 78 nM | 80 nM | –
O=C1C=C2C(C#Cc3ccsc3)=C[C@@H]3C[C@@]2(O1)[C@H]1CCCCN31 [Compound 31] | 60 nM | 156 to 310 nM | 75 nM | –
CCN(CC)CC#CC1=C[C@@H]2C[C@@]3(OC(=O)C=C13)[C@H]1CCCCN21 [Compound 35] | 130 nM | – | 110 nM | –
CN(C)c1ccc(C#CC2=C[C@@H]3C[C@@]4(OC(=O)C=C24)[C@H]2CCCCN32)cc1 [Compound 36] | 115 nM | 156 to 310 nM | 105 nM | –
CCCN(CC#CC1=C[C@@H]2C[C@@]3(OC(=O)C=C13)[C@H]1CCCCN21)CCC [Compound 39] | 80 nM | – | 70 nM | –
COc1ccc2cc(C#CC3=C[C@@H]4C[C@@]5(OC(=O)C=C35)[C@H]3CCCCN43)ccc2c1 [Compound 40] | 90 nM | – | 105 nM | –
O=C1C=C2C(C#Cc3cc4ccccc4c4ccccc34)=C[C@@H]3C[C@@]2(O1)[C@H]1CCCCN31 [Compound 41] | – | – | – | IC50 (MOLT3; Homo sapiens, MOLT-3, read-out: MOLT3 IC50 (nM)): 150 nM; IC50 (OCI-AML3; Homo sapiens, OCI-AML-3, read-out: OCI-AML3 IC50 (nM)): 180 nM
N#Cc1ccc(C#CC2=C[C@@H]3C[C@@]4(OC(=O)C=C24)[C@H]2CCCCN32)cc1 [Compound 46] | 145 nM | 310 to 625 nM | 205 nM | –
COc1cccc(C#CC2=C[C@@H]3C[C@@]4(OC(=O)C=C24)[C@H]2CCCCN32)c1 [Compound 47] | 150 nM | 310 to 625 nM | 215 nM | –
O=C1C=C2C(C#Cc3ccc(OC(F)(F)F)cc3)=C[C@@H]3C[C@@]2(O1)[C@H]1CCCCN31 [Compound 48] | > 300 nM | 310 to 625 nM | > 300 nM | –
O=C1C=C2CC(n3ccnc3)[C@@H]3C[C@@]2(O1)[C@H]1CCCCN31 (stereo partly shown) [Compound 99] | – | – | – | EC50 (HL-60 leukemic cells [3]; [10]): 15000 to 20000 nM
CC(C)NCCSC1CC2=CC(=O)O[C@@]23C[C@@H]1N1CCCC[C@@H]13 (stereo partly shown) [Compound 100] | – | – | – | EC50 (HL-60 leukemic cells [3]; [10]): 15000 to 20000 nM
O=C1C=C2C[C@H](SCC(F)(F)F)[C@@H]3C[C@@]2(O1)[C@H]1CCCCN31 [INVS-MG-5B] | – | – | – | EC50 (HL-60 leukemic cells [3]; [11]): > 30000 nM
COc1ccc(CN[C@@H]2CC3=CC(=O)O[C@@]34C[C@@H]2N2CCCC[C@@H]24)cc1 [INVS-MG-86C] | – | – | – | EC50 (HL-60 leukemic cells [3]; [11]): > 30000 nM
CO[C@H]1CC2=CC(=O)O[C@@]23C[C@@H]1N1CCCC[C@@H]13 [INVS-MG-97-IIB] | – | – | – | EC50 (HL-60 leukemic cells [3]; [11]): > 30000 nM
O=C1C=C2C(C#Cc3ccsc3)=C[C@@H]3C[C@@]2(O1)[C@H]1CCCCN31 [INVS-MG-136-III] | – | – | – | IC50 (MOLT3; MOLT3 cells, read-out: MOLT3 IC50): 100 nM; IC50 (HL-60 cells [2]; HL-60 cells): < 70 nM; IC50 (OCI-AML3; OCI-AML3 cells, read-out: OCI-AML3 IC50): 115 nM
C[N+]12CCCC[C@@H]1[C@]13C[C@H]2C=CC1=CC(=O)O3 (stereo partly shown) [Sec-1] | – | – | – | EC50 (HL-60 leukemic cells [3]; [11]): > 30000 nM
O=C1C=C2C=C[C@@H]3C[C@@]2(O1)[C@H]1CCCCN31 [Securinine, (6S,11aR,11bS)-9,10,11,11a-tetrahydro-8H-6,11b-methanofuro[2,3-c]pyrido[1,2-a]azepin-2(6H)-one] | – | – | – | CEBPβ expression (CEBPβ): time-dependent upregulation; EC50 (HL-60 leukemic cells [3]; Homo sapiens, HL-60, read-out: HL-60, Dif50): 10000 to 15000 nM; toxicity [4]: low toxicity; c-myc expression (c-myc): potently downregulated; induction of cell surface markers CD14 and CD11b (CD14 and CD11b): induce CD14 and CD11b; cells differentiated, NBT reduction assay (HL-60 leukemic cells [1]): ~95%; morphologic changes (leukemic cells): clear morphologic changes suggestive of monocytic differentiation; proliferation of HL-60 cells (HL-60 cells [5]): potently inhibits the proliferation of HL-60 cells; differentiation of leukemic cell lines [6]: can differentiate a variety of leukemic cell lines; phosphorylation of p44/p42 and p38 (p44/p42 and p38): induces rapid phosphorylation of p44/p42 and p38; cell cycle distribution (cell cycle (G0/G1)): accumulation of cells in G0/G1; p21 protein (p21): upregulated
C=C1CC[C@H](O)C/C1=C/C=C1\CCC[C@]2(C)[C@@H]([C@H](C)CCCC(C)C)CC[C@@H]12 [vitamin D3] | – | – | – | induction of cell surface markers CD14 and CD11b (CD14 and CD11b): induce CD14 and CD11b
